{"source": "PubChem BioAssay (NCI)", "experiment_in_all_cases": "NCI anticancer screen, dose series, 48 h", "key": {"[1]": {"tested_on": "BT-549 breast"}, "[2]": {"tested_on": "KM12 colon"}, "[3]": {"tested_on": "SK-MEL-28 melanoma"}, "[4]": {"tested_on": "T-47D breast"}, "[5]": {"tested_on": "786-0 renal"}, "[6]": {"tested_on": "HCT-15 colon"}, "[7]": {"tested_on": "SK-MEL-2 melanoma"}, "[8]": {"tested_on": "OVCAR-5 ovarian"}, "[9]": {"tested_on": "TK-10 renal"}, "[10]": {"tested_on": "HOP-92 NSCLC"}, "[11]": {"tested_on": "RPMI-8226 leukemia"}, "[12]": {"tested_on": "EKVX NSCLC"}, "[13]": {"tested_on": "K-562 leukemia"}, "[14]": {"tested_on": "A498 renal"}, "[15]": {"tested_on": "OVCAR-4 ovarian"}, "[16]": {"tested_on": "A549 NSCLC"}, "[17]": {"tested_on": "RXF 393 renal"}, "[18]": {"tested_on": "NCI-H23 lung"}, "[19]": {"tested_on": "UACC-257 melanoma"}, "[20]": {"tested_on": "UO-31 renal"}, "[21]": {"tested_on": "U251 CNS"}, "[22]": {"tested_on": "HS 578T breast"}, "[23]": {"tested_on": "OVCAR-8 ovarian"}, "[24]": {"tested_on": "CCRF-CEM leukemia"}, "[25]": {"tested_on": "SF-268 CNS"}, "[26]": {"tested_on": "OVCAR-3 ovarian"}, "[27]": {"tested_on": "SW-620 colon"}, "[28]": {"tested_on": "MCF7 breast"}, "[29]": {"tested_on": "HCT-116 colon"}}, "note": "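Each compound was tested at five concentrations against cells in 96-well plates for 48 hours. GI50 = concentration required for 50% inhibition of growth. At the TGI there is no net growth.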"}
{"smiles": "CSC1=Nc2c(c(C)c(-c3ccccc3)n2COC(CO)CO)C2=NC(=O)C(C)N12", "note": "(configuration not stated)", "values": [{"measurement": "GI50", "setting": "[1]", "result": "> 100", "unit": "µM"}, {"measurement": "TGI", "setting": "[1]", "result": "> 100", "unit": "µM"}, {"measurement": "GI50", "setting": "[2]", "result": "> 100", "unit": "µM"}, {"measurement": "TGI", "setting": "[2]", "result": "> 100", "unit": "µM"}, {"measurement": "GI50", "setting": "[3]", "result": "> 100", "unit": "µM"}, {"measurement": "TGI", "setting": "[3]", "result": "> 100", "unit": "µM"}, {"measurement": "GI50", "setting": "[4]", "result": "> 100", "unit": "µM"}, {"measurement": "TGI", "setting": "[4]", "result": "> 100", "unit": "µM"}, {"measurement": "GI50", "setting": "[5]", "result": "> 100", "unit": "µM"}, {"measurement": "TGI", "setting": "[5]", "result": "> 100", "unit": "µM"}, {"measurement": "GI50", "setting": "[6]", "result": "> 100", "unit": "µM"}, {"measurement": "TGI", "setting": "[6]", "result": "> 100", "unit": "µM"}, {"measurement": "GI50", "setting": "[7]", "result": "> 100", "unit": "µM"}, {"measurement": "TGI", "setting": "[7]", "result": "> 100", "unit": "µM"}, {"measurement": "GI50", "setting": "[8]", "result": "> 100", "unit": "µM"}, {"measurement": "TGI", "setting": "[8]", "result": "> 100", "unit": "µM"}, {"measurement": "GI50", "setting": "[9]", "result": "> 100", "unit": "µM"}, {"measurement": "TGI", "setting": "[9]", "result": "> 100", "unit": "µM"}, {"measurement": "GI50", "setting": "[10]", "result": "> 100", "unit": "µM"}, {"measurement": "TGI", "setting": "[10]", "result": "> 100", "unit": "µM"}, {"measurement": "GI50", "setting": "[11]", "result": "> 100", "unit": "µM"}, {"measurement": "TGI", "setting": "[11]", "result": "> 100", "unit": "µM"}, {"measurement": "GI50", "setting": "[12]", "result": "> 100", "unit": "µM"}, {"measurement": "TGI", "setting": "[12]", "result": "> 100", "unit": "µM"}, {"measurement": "GI50", "setting": "[13]", "result": "> 100", "unit": "µM"}, {"measurement": "TGI", "setting": "[13]", "result": "> 100", "unit": "µM"}, {"measurement": "GI50", "setting": "[14]", "result": "> 100", "unit": "µM"}, {"measurement": "TGI", "setting": "[14]", "result": "> 100", "unit": "µM"}, {"measurement": "GI50", "setting": "[15]", "result": "> 100", "unit": "µM"}, {"measurement": "TGI", "setting": "[15]", "result": "> 100", "unit": "µM"}, {"measurement": "GI50", "setting": "[16]", "result": "> 100", "unit": "µM"}, {"measurement": "TGI", "setting": "[16]", "result": "> 100", "unit": "µM"}, {"measurement": "GI50", "setting": "[17]", "result": "> 100", "unit": "µM"}, {"measurement": "TGI", "setting": "[17]", "result": "> 100", "unit": "µM"}, {"measurement": "GI50", "setting": "[18]", "result": "> 100", "unit": "µM"}, {"measurement": "TGI", "setting": "[18]", "result": "> 100", "unit": "µM"}, {"measurement": "GI50", "setting": "[19]", "result": "> 100", "unit": "µM"}, {"measurement": "TGI", "setting": "[19]", "result": "> 100", "unit": "µM"}, {"measurement": "GI50", "setting": "[20]", "result": "> 100", "unit": "µM"}, {"measurement": "TGI", "setting": "[20]", "result": "> 100", "unit": "µM"}, {"measurement": "GI50", "setting": "[21]", "result": "> 100", "unit": "µM"}, {"measurement": "TGI", "setting": "[21]", "result": "> 100", "unit": "µM"}, {"measurement": "GI50", "setting": "[22]", "result": "> 100", "unit": "µM"}, {"measurement": "TGI", "setting": "[22]", "result": "> 100", "unit": "µM"}, {"measurement": "GI50", "setting": "[23]", "result": "> 100", "unit": "µM"}, {"measurement": "TGI", "setting": "[23]", "result": "> 100", "unit": "µM"}, {"measurement": "GI50", "setting": "[24]", "result": "> 100", "unit": "µM"}, {"measurement": "TGI", "setting": "[24]", "result": "> 100", "unit": "µM"}, {"measurement": "GI50", "setting": "[25]", "result": "> 100", "unit": "µM"}, {"measurement": "TGI", "setting": "[25]", "result": "> 100", "unit": "µM"}, {"measurement": "GI50", "setting": "[26]", "result": "> 100", "unit": "µM"}, {"measurement": "TGI", "setting": "[26]", "result": "> 100", "unit": "µM"}, {"measurement": "GI50", "setting": "[27]", "result": "> 100", "unit": "µM"}, {"measurement": "TGI", "setting": "[27]", "result": "> 100", "unit": "µM"}, {"measurement": "GI50", "setting": "[28]", "result": "> 100", "unit": "µM"}, {"measurement": "TGI", "setting": "[28]", "result": "> 100", "unit": "µM"}, {"measurement": "GI50", "setting": "[29]", "result": "> 100", "unit": "µM"}]}
